Reference: US8697858B2 (priority 2009, dated 2014)
Several values for one entry are separate records, joined by “and”; a condition that tells them apart may be missing. Equal entries are not always repeated. Where two headings read alike, the source gives them in different places. In the oligonucleotide strings, read from the 5' end, every base follows the letter of its sugar. An asterisk marks phosphorothioate; unmarked linkages are phosphodiester. Other units and linkages are bracketed, terminal groups are in braces. A string of capitals states the bases alone. [PMO-N] = phosphorodiamidate morpholino subunit (N: the base); [pip] = piperazino phosphorodiamidate linkage (PMOplus)

Columns and labels:
Assay type in all cases: in vivo, ferrets
[1] = system: oseltamivir-resistant H1N1 (SOIV) pandemic influenza virus
[2] = system: oseltamivir-resistant H1N1 (SOIV) pandemic influenza virus; remark: listed apart in the source
[3] = system: oseltamivir-resistant H1N1 (SOIV) pandemic influenza virus; remark: listed apart in the source
[4] = system: oseltamivir-resistant H1N1 (SOIV) pandemic influenza virus; conditions: for Viral Titer / Viral Titer AUC: n = 8
[5] = Post minus Pre, Tamiflu 5 mg/kg p.o. every 12 hours
[6] = Post, Tamiflu 5 mg/kg p.o. every 12 hours
[7] = Pre, Tamiflu 5 mg/kg p.o. every 12 hours

CCOC(=O)C1=C[C@@H](OC(CC)CC)[C@H](NC(C)=O)[C@@H](N)C1 [Tamiflu, Oseltamivir, reference compound] was tested, and the “Body Weight Change Difference” value [1, 5] was -6.1 g/day, the “Max Body Temperatures Difference” value [1, 5] was “+1.3 ° F” and the “Body Weight Change Post” value [1, 6] was 8.5 ± 3.2 g/day. The “Max Body Temperatures Post” value [1, 6] was 105.7 ° F, the “Body Weight Change Pre” value [1, 7] was 15.1 ± 0.4 g/day and the “Max Body Temperatures Pre” value [1, 7] was 104.4 ° F. For the same molecule, the “Clinical Scores” value ([1]; Tamiflu 5 mg/kg p.o. every 12 hours) was 1.17 ± 0.25, the “Macrophage Cellularity in Upper Respiratory Tract, Day 3 Peak” value ([2]; nasal wash, Day 3, Tamiflu 5 mg/kg p.o. every 12 hours) was 7.91 ± 7.28 and the “Macrophage Cellularity in Upper Respiratory Tract, Average ± Std Deviation” value ([2]; nasal wash, Tamiflu 5 mg/kg p.o. every 12 hours) was 2.98 ± 2.71. For the same molecule, the “lung congestion, alveolitis, infiltrating cells” value ([3]; AVI-7100 with or without oseltamivir, oseltamivir-only) was “significant congestion in the lung with marked alveolitis”, the “Viral Titer” value ([4]; nasal wash, Day 1, Oseltamivir 5 mg/kg p.o. every 12 hours) was 2.42 ± 0.58 and the “Viral Titer” value ([4]; nasal wash, Day 3, Oseltamivir 5 mg/kg p.o. every 12 hours) was 0.77 ± 0.73. For the same molecule, the “Viral Titer” value ([4]; nasal wash, Day 5, Oseltamivir 5 mg/kg p.o. every 12 hours) was 0.67 ± 0.67, the “Viral Titer” value ([4]; nasal wash, Day 8, Oseltamivir 5 mg/kg p.o. every 12 hours) was 0.92 ± 0.37 and the “Viral Titer AUC” value ([4]; nasal wash, Oseltamivir 5 mg/kg p.o. every 12 hours) was 7.015.

With “AVI-7100: PMOplus CGGT+TAGAAGAC+TCATC+TTT, three (piperazino) phosphorodiamidate linkages ([PMO-C][PMO-G][PMO-G][PMO-T][pip][PMO-T][PMO-A][PMO-G][PMO-A][PMO-A][PMO-G][PMO-A][PMO-C][pip][PMO-T][PMO-C][PMO-A][PMO-T][PMO-C][pip][PMO-T][PMO-T][PMO-T])” the “Clinical Scores” value ([1]; in vivo) was 1.00 ± 0.00 and 1.11 ± 0.21, the “symptoms of influenza virus infection” value ([1]; in vivo) was “significantly reduces symptoms of influenza virus infection” and the “Body Weight Change Difference” value ([1]; in vivo, ip, 10 mg/kg) was -5.7 g/day. The “Body Weight Change Post” value ([1]; in vivo, ip, 10 mg/kg) was 10.9 ± 1.5 g/day, the “Body Weight Change Pre” value ([1]; in vivo, ip, 10 mg/kg) was 16.6 ± 0.8 g/day and the “Max Body Temperatures Difference” value ([1]; in vivo, ip, 10 mg/kg) was “+0.7 ° F”. For the same molecule, the “Max Body Temperatures Post” value ([1]; in vivo, ip, 10 mg/kg) was 106.1 ° F, the “Max Body Temperatures Pre” value ([1]; in vivo, ip, 10 mg/kg) was 105.4 ° F and the “Body Weight Change Difference” value ([1]; in vivo, ip, 30 mg/kg) was “+0.8 g/day”. The “Body Weight Change Post” value ([1]; in vivo, ip, 30 mg/kg) was 12.6 ± 2.0 g/day, the “Body Weight Change Pre” value ([1]; in vivo, ip, 30 mg/kg) was 11.8 ± 0.8 g/day and the “Max Body Temperatures Difference” value ([1]; in vivo, ip, 30 mg/kg) was −0.5 ° F. The “Max Body Temperatures Post” value ([1]; in vivo, ip, 30 mg/kg) was 104.2 ° F, the “Max Body Temperatures Pre” value ([1]; in vivo, ip, 30 mg/kg) was 104.7 ° F and the “Macrophage Cellularity in Upper Respiratory Tract, Average ± Std Deviation” value ([2]; in vivo, ip, 10 mg/kg) was 4.34 ± 3.82. For the same molecule, the “Macrophage Cellularity in Upper Respiratory Tract, Day 3 Peak” value ([2]; in vivo, ip, 10 mg/kg) was 3.88 ± 4.73, the “Macrophage Cellularity in Upper Respiratory Tract, Average ± Std Deviation” value ([2]; in vivo, ip, 30 mg/kg) was 2.78 ± 2.97 and the “Macrophage Cellularity in Upper Respiratory Tract, Day 3 Peak” value ([2]; in vivo, ip, 30 mg/kg) was 1.59 ± 1.28. The “lung congestion, alveolitis, infiltrating cells” value ([3]; in vivo) was “no congestion in the lung, only mild alveolitis, and few infiltrating cells”, the “viral titer in nasal wash, benefit in words” value ([4]; in vivo) was “Significant benefit” and the “Viral Titer AUC” value ([4]; 10 mg/kg) was 5.515. The “Viral Titer AUC” value ([4]; 30 mg/kg) was 5.675.
